Results as given in publication PMC7128553 (Chemistry & Biology, 2004).
“Also recorded” adds a separate entry of the source. Where two headings read alike, the source gives them in different places.

Columns and labels:
SARS-CoV = assay: microbe, parasite or virus in culture; type: cell-based; settings: read-out: EC50, SARS-CoV plaque formation
Vero cells = settings: African green monkey
[1] = target: T1, human neutrophil elastase (HNE) (Homo sapiens, UniProt P08246); type: biochemical
T1 sequence (P08246 30-267): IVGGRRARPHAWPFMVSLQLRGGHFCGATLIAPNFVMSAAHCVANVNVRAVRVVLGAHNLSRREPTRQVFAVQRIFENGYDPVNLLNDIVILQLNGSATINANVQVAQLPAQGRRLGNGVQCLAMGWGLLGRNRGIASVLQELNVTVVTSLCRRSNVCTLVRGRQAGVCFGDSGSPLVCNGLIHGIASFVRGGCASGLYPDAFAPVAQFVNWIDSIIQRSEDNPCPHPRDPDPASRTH

poliovirus (type 1) = type: cell-based
[2] = Severe acute respiratory syndrome coronavirus, Vero

Compound | EC50 (SARS-CoV; [2]) [µM] | EC50 (SARS-CoV) [µM] | Cytotoxicity on Vero Cells (TC50) (Vero cells) [µM] | Inhibition of proteolytic activity of HNE [1] | Inhibition of poliovirus plaque formation (poliovirus (type 1))
O=C(Nc1ccc(Cl)c(-c2nc3ncccc3o2)c1)c1cccc(OCc2ccccc2)c1 [HE602, 3-Benzyloxy-N-(4-chloro-3-oxazolo[4,5-b]pyridine-2-yl-phenyl)benzamide] | 6 | < 10 | >50 |  | 
CC1=C(C(=O)OCCc2ccccc2)C(c2ccccc2[N+](=O)[O-])C2=C(CCCC2=O)N1 (stereo not drawn) [MP576, 3-quinolinecarboxylic acid, 1,4,5,6,7,8-hexahydro-2-methyl-4-(2-nitrophenyl)-5-oxo-, 2-phenylethyl ester] | 7 | < 10 | >50 | failed to inhibit; also recorded: did not inhibit | 
OC(COc1cccc(OCC(O)CN2CCCCC2)c1)CN1CCCCC1 (stereo not drawn) [VE607, 1-[3-(2-Hydroxyl-3-piperidin-1-yl-propoxy)-phenoxy]-3-piperidin-1-ylpropan-2-ol] |  |  | >50 |  | did not protect; also recorded: did not inhibit
